Data reported in patent US20230136600A1, “Method and device for screening antigen epitope polypeptide” (priority 2020, published 2023).

Columns and labels:
Balb/c mice = assay: Polypeptide chip-based vaccine immunogenicity scoring system; assay type: in vivo; set-up: key to A2: whether the 95 percentile of the last sampling is increased compared with the end point: Y = rise; N = no rise; details: for A: 95 percentile grouping number score / B: Mouse performance score: total score = 5
[1] = test system: novel coronavirus (live coronavirus), vero cells; assay: In-vitro live virus neutralization experiment with serum of immunized mice (CPE method); assay type: in vivo, SARS-CoV-2
[2] = Embodiment III, polypeptide-KLH
[3] = Embodiment III, polypeptide-KLH, Mix1-10
[4] = Embodiment III, polypeptide-KLH, value of the whole mix
[5] = adjuvant AddaVax, 7 peptides co-immunized in mice
[6] = adjuvant Adju-Phos, 7 peptides co-immunized in mice
[7] = adjuvant Alhydrogel, 7 peptides co-immunized in mice
[8] = adjuvant Imjet Alumn, 7 peptides co-immunized in mice
[9] = adjuvant MA103A, 7 peptides co-immunized in mice
[10] = adjuvant MA103B, 7 peptides co-immunized in mice

SNLKPFER (SARS-CoV-2) [SEQ ID NO:36]
A2: whether the 95 percentile of the last sampling is increased compared with the end point (Balb/c mice; Embodiment II, Combination 2): Y
B1: D 0-D 14 95 percentile rise in the number of mice (Balb/c mice; Embodiment II, Combination 2): 5
B2: D 0-D 21 95 percentile rise in the number of mice (Balb/c mice; Embodiment II, Combination 2): 5
B3: D 14-D 21 95 percentile rise in the number of mice (Balb/c mice; Embodiment II, Combination 2): 0
B4: D 21-D 28 95 percentile rise in the number of mice (Balb/c mice; Embodiment II, Combination 2): 2
Total single peptide (Balb/c mice; Embodiment II, Combination 2, A*3 + B*2 + C*1): 11.8
A: 95 percentile grouping number score (Balb/c mice; Embodiment II, Combination 2): 1.5
B: Mouse performance score (Balb/c mice; Embodiment II, Combination 2): 3.4
A1: difference between a highest median and a D 0 median (95 percentile) (Balb/c mice; Embodiment II, mice immunized with Combination 2): 0.1
B1: D 0-D 14 95 percentile rise in the number of mice (Balb/c mice; [2]): 3
B2: D 0-D 21 95 percentile rise in the number of mice (Balb/c mice; [2]): 2
B3: D 14-D 21 95 percentile rise in the number of mice (Balb/c mice; [2]): 0
B4: D 21-D 28 95 percentile rise in the number of mice (Balb/c mice; [2]): 2
A1: difference between a highest median and a D 0 median (95 percentile) (Balb/c mice; [3]): 0.10
A2: whether the 95 percentile of the last sampling is increased compared with the end point (Balb/c mice; [3]): Y
Total single peptide (Balb/c mice; Embodiment III, polypeptide-KLH, A*3 + B*2 + C*1): 17.4
A: 95 percentile grouping number score (Balb/c mice; [2]): 4.5
B: Mouse performance score (Balb/c mice; [2]): 1.7
C1: #A timing-sequence response peptide fragment set (Balb/c mice; [4]): 511
C2: #B vaccine specificity peptide fragment set (Balb/c mice; [4]): 364
C3: Intersection of A and B (Balb/c mice; [4]): 1
C4: Percentage of the intersection in set B (Balb/c mice; [4]): 0.275
C: Timing-sequence response and specificity score (Balb/c mice; [4]): 0.5
1) 95 percentile grouping number A (Balb/c mice; [5]): 3.5
1) 95 percentile grouping number A1 (Balb/c mice; [5]): 0.04
2) Mouse performance B (Balb/c mice; [5]): 2.5
2) Mouse performance B1 (Balb/c mice; [5]): 3
2) Mouse performance B2 (Balb/c mice; [5]): 4
2) Mouse performance B3 (Balb/c mice; [5]): 2
3) Timing-sequence response and specificity C (Balb/c mice; [5]): 0
3) Timing-sequence response and specificity C1 (Balb/c mice; [5]): 237
3) Timing-sequence response and specificity C2 (Balb/c mice; [5]): 1244
3) Timing-sequence response and specificity C3 (Balb/c mice; [5]): 0
3) Timing-sequence response and specificity C4 (Balb/c mice; [5]): 0.000
Total single peptide (Balb/c mice; [5]): 15.5
1) 95 percentile grouping number A (Balb/c mice; [6]): 3.5
1) 95 percentile grouping number A1 (Balb/c mice; [6]): 0.05
2) Mouse performance B (Balb/c mice; [6]): 1.8
2) Mouse performance B1 (Balb/c mice; [6]): 2
2) Mouse performance B2 (Balb/c mice; [6]): 2
2) Mouse performance B3 (Balb/c mice; [6]): 2
3) Timing-sequence response and specificity C (Balb/c mice; [6]): 0
3) Timing-sequence response and specificity C1 (Balb/c mice; [6]): 203
3) Timing-sequence response and specificity C2 (Balb/c mice; [6]): 1244
3) Timing-sequence response and specificity C3 (Balb/c mice; [6]): 0
3) Timing-sequence response and specificity C4 (Balb/c mice; [6]): 0.000
Total single peptide (Balb/c mice; [6]): 14.1
1) 95 percentile grouping number A (Balb/c mice; [7]): 0
1) 95 percentile grouping number A1 (Balb/c mice; [7]): 0
2) Mouse performance B (Balb/c mice; [7]): 1.9
2) Mouse performance B1 (Balb/c mice; [7]): 3
2) Mouse performance B2 (Balb/c mice; [7]): 1
2) Mouse performance B3 (Balb/c mice; [7]): 2
3) Timing-sequence response and specificity C (Balb/c mice; [7]): 1
3) Timing-sequence response and specificity C1 (Balb/c mice; [7]): 123
3) Timing-sequence response and specificity C2 (Balb/c mice; [7]): 1244
3) Timing-sequence response and specificity C3 (Balb/c mice; [7]): 2
3) Timing-sequence response and specificity C4 (Balb/c mice; [7]): 0.161
Total single peptide (Balb/c mice; [7]): 4.3
1) 95 percentile grouping number A (Balb/c mice; [8]): 4.5
1) 95 percentile grouping number A1 (Balb/c mice; [8]): 0.065
2) Mouse performance B (Balb/c mice; [8]): 2.5
2) Mouse performance B1 (Balb/c mice; [8]): 5
2) Mouse performance B2 (Balb/c mice; [8]): 3
2) Mouse performance B3 (Balb/c mice; [8]): 1
3) Timing-sequence response and specificity C (Balb/c mice; [8]): 1
3) Timing-sequence response and specificity C1 (Balb/c mice; [8]): 100
3) Timing-sequence response and specificity C2 (Balb/c mice; [8]): 1244
3) Timing-sequence response and specificity C3 (Balb/c mice; [8]): 3
3) Timing-sequence response and specificity C4 (Balb/c mice; [8]): 0.241
Total single peptide (Balb/c mice; [8]): 19
1) 95 percentile grouping number A (Balb/c mice; [9]): 4.5
1) 95 percentile grouping number A1 (Balb/c mice; [9]): 0.065
2) Mouse performance B (Balb/c mice; [9]): 2.4
2) Mouse performance B1 (Balb/c mice; [9]): 4
2) Mouse performance B2 (Balb/c mice; [9]): 4
2) Mouse performance B3 (Balb/c mice; [9]): 1
3) Timing-sequence response and specificity C (Balb/c mice; [9]): 1
3) Timing-sequence response and specificity C1 (Balb/c mice; [9]): 260
3) Timing-sequence response and specificity C2 (Balb/c mice; [9]): 1244
3) Timing-sequence response and specificity C3 (Balb/c mice; [9]): 3
3) Timing-sequence response and specificity C4 (Balb/c mice; [9]): 0.241
Total single peptide (Balb/c mice; [9]): 18.8
1) 95 percentile grouping number A (Balb/c mice; [10]): 5
1) 95 percentile grouping number A1 (Balb/c mice; [10]): 0.06
2) Mouse performance B (Balb/c mice; [10]): 3.2
2) Mouse performance B1 (Balb/c mice; [10]): 4
2) Mouse performance B2 (Balb/c mice; [10]): 4
2) Mouse performance B3 (Balb/c mice; [10]): 3
3) Timing-sequence response and specificity C (Balb/c mice; [10]): 0
3) Timing-sequence response and specificity C1 (Balb/c mice; [10]): 153
3) Timing-sequence response and specificity C2 (Balb/c mice; [10]): 1244
3) Timing-sequence response and specificity C3 (Balb/c mice; [10]): 0
3) Timing-sequence response and specificity C4 (Balb/c mice; [10]): 0.000
Total single peptide (Balb/c mice; [10]): 21.4
Neutralizing antibody positive rate (%) ([1]; Embodiment I: single peptide 100 μg + MF59 at Day 0, 14, 28, Balb/c mice, serum Day 35): 40%
Neutralizing activity of serum to the novel coronavirus (in words) ([1]; Embodiment I: single peptide vaccines + MF59): optimal neutralization effect
